The text below walks through data of patent US20260029420A1, “ANTI-CB2 ANTIBODIES AND THEIR USE IN A FLOW CYTOMETRY ASSAY TO MEASURE CELL SURFACE CB2 EXPRESSION” (Hoffmann-La Roche Inc., priority 2022, published 2026).

The target of test [1] is T1, CB2 (Macaca fascicularis, UniProt G7NVV5). Description: In vitro CB2 internalization flow cytometry assay in Cynomolgus whole blood. The format is cell-based, Cynomolgus monkey. On the procedure:
FIG. 10: In vitro IC50 determination of CB2 internalization on B-cells in whole blood from Cynomolgus monkeys. Cynomolgus whole blood was incubated with RG7774 for 1 hour at 37° C. followed by incubation with the anti-human CB2 antibody 1/622. The expression of CB2 on the surface of B-cells was analyzed using a lineage marker mix specific for B-cells and T-cells. The B/T-cell CB2 MFI ratio was calculated and normalized to baseline. 0 μM was set as 100% baseline receptor expression.
In order to establish whether the CB2 surface assay is cross-reactive in Cynomolgus monkey, blood obtained from five different healthy Cynomolgus monkey has been tested in vitro and the individual IC50 values for RG7774 and maximum reduction of CB2 surface expression in whole blood determined using 8 different compound concentrations in duplicates (FIG. 10, Table 8).

For test [2], the target named is T1, CB2. Briefly: In vivo CB2 internalization on B-cells upon oral dosing in Cynomolgus monkeys. More on the design: species or system Cynomolgus monkey. How it is done:
FIG. 11: In vivo feasibility for the new CB2 flow cytometry assay to monitor pharmacodynamic response in vitro on B-cells upon oral dosing. Six healthy Cynomolgus monkeys were dosed with three different doses of an oral micro suspension of RG7774 with two animals per dose group. Blood drawn at different time points was incubated with the anti-human CB2 antibody 1/622. The expression of CB2 on the surface of B-cells was analyzed using a lineage marker mix specific for B-cells and T-cells. The B/T-cell CB2 MFI ratio was calculated and normalized to baseline. 0 μM served as 100% baseline receptor expression. For the animal Mina, blood samples could only be taken up to 1 hour after experimental start, since the animal had to be remove of the study due to a rectal prolapse.
FIG. 12: Single dose in vivo study monitoring the pharmacodynomic effect of RG7774 on CB2 expression on B-cells in Cynomolgus upon oral dosing. Three healthy cynomolgus monkeys were dosed with 100 mg/kg of the CB2 agonist RG7774. The blood draw at different time points was followed by the incubation with the anti-human CB2 antibody 1/622. The expression of CB2 on the surface of B-cells was analyzed using a lineage marker mix specific for B-cells and T-cells. The B/T-cell CB2 MFI ratio was calculated and normalized to baseline. 0 μM served as 100% baseline receptor expression. […] Due to a storage effect of the antibody working dilution (5 μg/sample) of the anti-human CB2 Ab 1/622 the 4 and 7 hours' time point have been excluded. The working dilution of this antibody is only stable for 2 hours on ice.
The feasibility of applying the newly developed CB2 flow cytometry assay as an assay to monitor pharmacodynamic response to oral doses of RG7774 was evaluated in three groups of two Cynomolgus monkeys. Upon oral administration of three different single doses of a micro suspension of 0.5, 5 and 100 mg/kg RG7774 respectively, blood samples from all animals were taken at the selected time points: 0 (pre-dose) and 0.25, 0.5, 1, 2, 4, 7 and 24 h post dosing and subjected to the CB2 flow cytometry analysis (FIG. 11).
In this in vivo cyno study three cynomolgus monkeys were orally dosed with 100 mg/kg of RG7774. Blood sampling for TE-assay was performed at selected time points: −96, −24 (both time points not shown), 0 (predose) and 0.25, 0.5, 1, 2, 4, 7, 24, 31, 48 and 72 hours post-dosing (FIG. 12).

Test [3] deals with T2, CB2 (Homo sapiens, UniProt P34972).
T2 construct: measured in whole blood samples from nine different healthy human volunteers of working-age; endogenous in cells; host or cells: B-cells (and basophils and other leukocytes) in human whole blood
Briefly: Phase I clinical trial CB2 target engagement on B-cells in healthy volunteers. The format is in vivo. The conditions noted are these: for time of nadir (lowest CB2 surface expression) post-dose: single oral dose. On the procedure:
FIG. 13: Arithmetic Mean (+SD) Percentage Change-from-Baseline (CFB) of CB2-Receptor Target Engagement on B-cells in Blood versus Time Following Single Oral Dose Administration of 0.75 mg to 300 mg RG7774 in the Fasted State (n=6 on active drug vs 2 on placebo per dose level).
FIG. 14: Arithmetic Mean (+SD) Percentage Change-from-Baseline (CFB) of CB2-Receptor Target Engagement on B-cells in Blood versus Time Following Single Oral Dose Administration of 100 mg RG7774 in fasted and fed state.
FIG. 15: Arithmetic Mean (+SD) Percentage Change-from-Baseline (CFB) of CB2-Receptor Target Engagement on B-cells in Blood versus Time Following Multiple Oral Dose Administration of 20 mg to 300 mg RG7774 once daily for 14 Days.
The clinical utility of the newly developed CB2 flow cytometry assay as a measure for target engagement in a clinical setting was confirmed by its successful implementation in a phase I clinical trial in healthy volunteers. In the clinical setting B/T-cell ratio was not used as it introduced higher variability relative to the baseline normalized B-cell data alone.
In a first step, oral administration of a single ascending dose (SAD) of RG7774 in the range between 0.75 mg and 300 mg in the fasted state was assessed. Following oral administration of RG774, the onset of CB2 internalization was rapid, with the nadir (lowest CB2 surface expression) achieved at 4 hours post-dose for doses below 10 mg RG7774, and at 1 hour post-dose for doses at 10 mg to 30 mg RG7774 (FIG. 13). For the two highest tested doses of 100 mg and 300 mg RG7774, the time to reach the nadir shifted with the area under the effect curve increasing. […] This indicates successful target engagement of RG7774 upon oral dosing. Furthermore, the assay was utilized to inform stopping rules for dose escalation in the SAD part of the first-in-human (FIH) trial.
In a third part of the FIH study, the effects of multiple ascending doses (MAD) of 20 mg to 300 mg RG7774 administered once daily over 14 days on CB2 internalization were investigated (FIG. 15).

Setting [4] is: 20 mg to 300 mg once daily over 14 days.

Where only a bound is given, the exact number is not on record here.

T1 sequence (G7NVV5 1-360): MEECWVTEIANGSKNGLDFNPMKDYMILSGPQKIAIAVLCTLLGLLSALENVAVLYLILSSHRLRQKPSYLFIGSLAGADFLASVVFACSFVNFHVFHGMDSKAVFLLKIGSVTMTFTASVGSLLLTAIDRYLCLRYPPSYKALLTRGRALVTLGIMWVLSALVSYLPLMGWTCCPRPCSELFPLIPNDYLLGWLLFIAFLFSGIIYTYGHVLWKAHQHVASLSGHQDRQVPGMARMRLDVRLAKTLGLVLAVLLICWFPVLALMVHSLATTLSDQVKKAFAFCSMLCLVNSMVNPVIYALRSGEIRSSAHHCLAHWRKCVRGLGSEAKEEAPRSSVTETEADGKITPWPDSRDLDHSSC
T2 sequence (P34972 whole entry): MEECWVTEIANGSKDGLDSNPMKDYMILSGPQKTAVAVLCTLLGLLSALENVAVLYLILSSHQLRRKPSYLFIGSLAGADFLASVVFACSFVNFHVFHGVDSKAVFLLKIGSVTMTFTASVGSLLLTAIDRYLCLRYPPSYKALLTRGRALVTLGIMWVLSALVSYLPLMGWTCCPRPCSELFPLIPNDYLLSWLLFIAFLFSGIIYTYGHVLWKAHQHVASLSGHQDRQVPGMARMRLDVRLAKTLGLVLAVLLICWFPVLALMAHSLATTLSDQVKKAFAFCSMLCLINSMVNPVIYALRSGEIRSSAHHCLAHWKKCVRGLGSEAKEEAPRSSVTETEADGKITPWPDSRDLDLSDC

As for `Cn1nnnc1Cn1nnc2c(N3CC[C@H](O)C3)nc(C(C)(C)C)nc21` [RG7774, (S)-1-[5-tert-Butyl-3-(1-methyl-1H-tetrazol-5-ylmethyl)-3H-[1,2,3]triazolo [4,5-d]pyrimidin-7-yl]-pyrrolidin-3-ol], the “reduction of the CB2 expression” value at CB2 [1] (T-cells, Monocytes and Granulocytes (data not shown)) is listed as “has not been observed”. Moreover, the “responder status in vitro” value on CB2 [1] (five Cynomolgus monkeys) was “One Cynomolgus out of five is a non-responder”. Also, on CB2 [2] (100 mg/kg oral), the “onset of pharmacodynamic effect on CB2 surface expression on B-cells” value was not above 15 min. The “duration of reduction of CB2 expression on B-cells” value on CB2 [2] (single oral doses 0.5, 5 and 100 mg/kg) is on record as “around 24 hours”. In addition, on CB2 [2] (single oral doses 0.5, 5 and 100 mg/kg micro suspension), the “reduction relative to individual baseline CB2 expression on B-cells” value was “dose dependent reduction”. Also, the “responder status in vivo” value on CB2 [2] (three cynomolgus monkeys, 100 mg/kg oral) is on record as “One out of three cynos is a non-responder”. In addition, the “desensitization of CB2 internalization” value on CB2 [3] (setting [4]) is recorded as “no desensitization was observed”. In addition, the “steady-state of PD effect” value on CB2 [3] (setting [4]) is given as “steady-state was reached during the observation period”. Moreover, the “impact of food consumption on the pharmacodynamic (PD) effects” value at CB2 [3] (100 mg single dose, fasted (n=8) vs fed (n=8)) is recorded as “no relevant impact”. Further, the “time to reversal of reduction of CB2 surface receptor expression upon stopping the drug” value at CB2 [3] (after 14 days once daily, not yet fully reversed for the two highest doses) is approximately 1 week. At CB2 [3] (single ascending dose 0.75 mg to 300 mg, fasted), the “extent of CB2 internalization (CB2 target engagement)” value is “increased dose-dependently”. The “time of nadir (lowest CB2 surface expression) post-dose” value stood at 1 h at CB2 [3] (fasted, doses at 10 mg to 30 mg) and 4 h on CB2 [3] (fasted, doses below 10 mg).
